# Measured values taken from article PMC5933747 (PLoS ONE, 2018).
# Where two headings read alike, the source gives them in different places.
# Target: human NaV1.5 (Homo sapiens, UniProt Q14524)
# Assay: IonWorks Quattro (IWQ) electrophysiology, human NaV1.5
# Assay type: cell-based
# [1] = human, read-out: Ala mutant IWQ IC50 NaV1.5
# [2] = human, read-out: Glu mutant IWQ IC50 NaV1.5
# Chain of human NaV1.5 (Q14524 whole entry): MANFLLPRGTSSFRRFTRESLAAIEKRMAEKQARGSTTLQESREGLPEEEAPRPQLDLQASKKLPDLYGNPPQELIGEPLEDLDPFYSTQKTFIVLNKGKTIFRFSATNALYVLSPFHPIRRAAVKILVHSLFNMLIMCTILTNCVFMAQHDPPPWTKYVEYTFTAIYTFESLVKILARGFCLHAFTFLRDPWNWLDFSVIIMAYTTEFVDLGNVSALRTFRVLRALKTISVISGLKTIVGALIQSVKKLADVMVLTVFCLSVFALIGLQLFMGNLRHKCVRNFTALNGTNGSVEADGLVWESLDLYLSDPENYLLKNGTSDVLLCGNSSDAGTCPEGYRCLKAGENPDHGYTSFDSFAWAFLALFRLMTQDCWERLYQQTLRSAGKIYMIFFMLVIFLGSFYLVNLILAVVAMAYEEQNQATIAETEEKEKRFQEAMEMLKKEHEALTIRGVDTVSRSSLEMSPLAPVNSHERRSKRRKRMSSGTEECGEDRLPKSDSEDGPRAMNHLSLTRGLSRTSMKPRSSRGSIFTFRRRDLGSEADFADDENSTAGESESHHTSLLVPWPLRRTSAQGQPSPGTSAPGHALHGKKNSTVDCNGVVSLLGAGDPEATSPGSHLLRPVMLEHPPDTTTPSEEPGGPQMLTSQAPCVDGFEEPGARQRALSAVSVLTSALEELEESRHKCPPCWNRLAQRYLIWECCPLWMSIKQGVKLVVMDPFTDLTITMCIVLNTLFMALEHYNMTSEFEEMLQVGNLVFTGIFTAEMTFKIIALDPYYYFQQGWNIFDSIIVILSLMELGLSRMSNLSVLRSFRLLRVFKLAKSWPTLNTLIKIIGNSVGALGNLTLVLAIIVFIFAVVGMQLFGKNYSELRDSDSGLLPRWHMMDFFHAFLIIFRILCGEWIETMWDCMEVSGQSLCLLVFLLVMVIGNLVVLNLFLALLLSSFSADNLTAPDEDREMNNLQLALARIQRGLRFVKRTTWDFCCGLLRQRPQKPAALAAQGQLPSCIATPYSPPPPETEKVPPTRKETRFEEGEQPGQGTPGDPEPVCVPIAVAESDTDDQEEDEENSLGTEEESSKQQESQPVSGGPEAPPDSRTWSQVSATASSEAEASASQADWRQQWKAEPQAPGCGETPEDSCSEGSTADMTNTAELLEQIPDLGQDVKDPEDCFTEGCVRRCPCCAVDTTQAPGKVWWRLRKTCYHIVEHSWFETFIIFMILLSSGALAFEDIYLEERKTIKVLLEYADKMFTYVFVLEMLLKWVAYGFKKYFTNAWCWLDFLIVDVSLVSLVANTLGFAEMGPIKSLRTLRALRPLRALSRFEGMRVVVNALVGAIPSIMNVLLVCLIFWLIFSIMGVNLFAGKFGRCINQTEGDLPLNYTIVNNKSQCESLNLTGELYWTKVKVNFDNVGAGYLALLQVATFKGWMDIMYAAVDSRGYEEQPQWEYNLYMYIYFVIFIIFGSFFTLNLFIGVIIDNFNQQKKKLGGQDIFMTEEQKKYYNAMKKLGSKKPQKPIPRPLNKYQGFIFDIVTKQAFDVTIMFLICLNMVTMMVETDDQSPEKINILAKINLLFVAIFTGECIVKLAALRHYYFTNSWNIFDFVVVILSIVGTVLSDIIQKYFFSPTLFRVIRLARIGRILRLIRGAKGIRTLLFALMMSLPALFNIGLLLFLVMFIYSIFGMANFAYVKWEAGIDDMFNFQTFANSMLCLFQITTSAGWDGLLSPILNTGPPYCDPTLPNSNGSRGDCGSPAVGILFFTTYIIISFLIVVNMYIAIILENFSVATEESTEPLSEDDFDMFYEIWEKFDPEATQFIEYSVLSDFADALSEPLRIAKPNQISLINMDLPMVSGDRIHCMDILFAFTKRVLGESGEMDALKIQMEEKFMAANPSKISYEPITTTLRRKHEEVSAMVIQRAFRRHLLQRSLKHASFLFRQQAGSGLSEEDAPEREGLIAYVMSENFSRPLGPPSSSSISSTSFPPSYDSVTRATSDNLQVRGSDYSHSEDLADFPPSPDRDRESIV
Structure (SMILES),IC50 [1] [µM],IC50 [2] [µM],also measured
CC[C@H](C)[C@H](NC(=O)[C@@H](NC(=O)[C@H](CCCCN)NC(=O)[C@H](CCCNC(=N)N)NC(=O)[C@@H]1CSSC[C@@H]2NC(=O)[C@H](C)NC(=O)[C@H](C)NC(=O)[C@H](CCCCN)NC(=O)[C@H](CO)NC(=O)[C@H](CC(=O)O)NC(=O)[C@@H]3CSSC[C@H](NC(=O)[C@H](CCCNC(=N)N)NC(=O)[C@H](CC(C)C)NC(=O)CNC(=O)[C@H](CCC(=O)O)NC(=O)[C@H](CSSC[C@H](NC(=O)[C@@H](N)Cc4ccc(O)cc4)C(=O)N[C@@H](CCC(N)=O)C(=O)N[C@@H](CCCCN)C(=O)N[C@@H](Cc4c[nH]c5ccccc45)C(=O)N[C@@H](CCSC)C(=O)N[C@@H](Cc4c[nH]c5ccccc45)C(=O)N[C@@H]([C@@H](C)O)C(=O)N3)NC2=O)C(=O)N[C@@H](CCCCN)C(=O)N[C@@H](CC(C)C)C(=O)N[C@@H](Cc2c[nH]c3ccccc23)C(=O)N1)[C@@H](C)CC)C(N)=O [R13 Ala mutant],> 5,–,–
CC[C@H](C)[C@H](NC(=O)[C@@H](NC(=O)[C@H](CCCCN)NC(=O)[C@H](CCCNC(=N)N)NC(=O)[C@@H]1CSSC[C@@H]2NC(=O)[C@H](C)NC(=O)[C@H](CCCNC(=N)N)NC(=O)[C@H](CCCCN)NC(=O)[C@H](CO)NC(=O)[C@H](CC(=O)O)NC(=O)[C@@H]3CSSC[C@H](NC(=O)[C@H](CCCNC(=N)N)NC(=O)[C@H](CC(C)C)NC(=O)CNC(=O)[C@H](CCC(=O)O)NC(=O)[C@H](CSSC[C@H](NC(=O)[C@@H](N)Cc4ccc(O)cc4)C(=O)N[C@@H](CCC(N)=O)C(=O)N[C@@H](CCCCN)C(=O)N[C@@H](Cc4c[nH]c5ccccc45)C(=O)N[C@@H](CCSC)C(=O)N[C@@H](Cc4c[nH]c5ccccc45)C(=O)N[C@@H]([C@@H](C)O)C(=O)N3)NC2=O)C(=O)N[C@@H](C)C(=O)N[C@@H](CC(C)C)C(=O)N[C@@H](Cc2c[nH]c3ccccc23)C(=O)N1)[C@@H](C)CC)C(N)=O [K22 Ala mutant],> 5,–,–
CC[C@H](C)[C@H](NC(=O)[C@@H](NC(=O)[C@H](CCCCN)NC(=O)[C@H](CCCNC(=N)N)NC(=O)[C@@H]1CSSC[C@@H]2NC(=O)[C@H](C)NC(=O)[C@H](CCCNC(=N)N)NC(=O)[C@H](CCCCN)NC(=O)[C@H](CCC(=O)O)NC(=O)[C@H](CC(=O)O)NC(=O)[C@@H]3CSSC[C@H](NC(=O)[C@H](CCCNC(=N)N)NC(=O)[C@H](CC(C)C)NC(=O)CNC(=O)[C@H](CCC(=O)O)NC(=O)[C@H](CSSC[C@H](NC(=O)[C@@H](N)Cc4ccc(O)cc4)C(=O)N[C@@H](CCC(N)=O)C(=O)N[C@@H](CCCCN)C(=O)N[C@@H](Cc4c[nH]c5ccccc45)C(=O)N[C@@H](CCSC)C(=O)N[C@@H](Cc4c[nH]c5ccccc45)C(=O)N[C@@H]([C@@H](C)O)C(=O)N3)NC2=O)C(=O)N[C@@H](CCCCN)C(=O)N[C@@H](CC(C)C)C(=O)N[C@@H](Cc2c[nH]c3ccccc23)C(=O)N1)[C@@H](C)CC)C(N)=O [S11 Glu mutant],–,> 5,–
CC[C@H](C)[C@H](NC(=O)[C@@H](NC(=O)[C@H](CCCCN)NC(=O)[C@H](CCCNC(=N)N)NC(=O)[C@@H]1CSSC[C@@H]2NC(=O)[C@H](C)NC(=O)[C@H](CCCNC(=N)N)NC(=O)[C@H](CCCCN)NC(=O)[C@H](CO)NC(=O)[C@H](CC(=O)O)NC(=O)[C@@H]3CSSC[C@H](NC(=O)[C@H](CCCNC(=N)N)NC(=O)[C@H](CC(C)C)NC(=O)CNC(=O)[C@H](CCC(=O)O)NC(=O)[C@H](CSSC[C@H](NC(=O)[C@@H](N)Cc4ccc(O)cc4)C(=O)N[C@@H](CCC(N)=O)C(=O)N[C@@H](CCCCN)C(=O)N[C@@H](Cc4c[nH]c5ccccc45)C(=O)N[C@@H](CCSC)C(=O)N[C@@H](CCC(=O)O)C(=O)N[C@@H]([C@@H](C)O)C(=O)N3)NC2=O)C(=O)N[C@@H](CCCCN)C(=O)N[C@@H](CC(C)C)C(=O)N[C@@H](Cc2c[nH]c3ccccc23)C(=O)N1)[C@@H](C)CC)C(N)=O [W7 Glu mutant],–,> 5,–
CC[C@H](C)[C@H](NC(=O)[C@@H](NC(=O)[C@H](CCCCN)NC(=O)[C@H](CCCNC(=N)N)NC(=O)[C@@H]1CSSC[C@@H]2NC(=O)[C@H](C)NC(=O)[C@H](CCCNC(=N)N)NC(=O)[C@H](CCCCN)NC(=O)[C@H](CO)NC(=O)[C@H](CC(=O)O)NC(=O)[C@@H]3CSSC[C@H](NC(=O)[C@H](CCCNC(=N)N)NC(=O)[C@H](CC(C)C)NC(=O)CNC(=O)[C@H](C)NC(=O)[C@H](CSSC[C@H](NC(=O)[C@@H](N)Cc4ccc(O)cc4)C(=O)N[C@@H](CCC(N)=O)C(=O)N[C@@H](CCCCN)C(=O)N[C@@H](Cc4c[nH]c5ccccc45)C(=O)N[C@@H](CCSC)C(=O)N[C@@H](Cc4c[nH]c5ccccc45)C(=O)N[C@@H]([C@@H](C)O)C(=O)N3)NC2=O)C(=O)N[C@@H](CCCCN)C(=O)N[C@@H](CC(C)C)C(=O)N[C@@H](Cc2c[nH]c3ccccc23)C(=O)N1)[C@@H](C)CC)C(N)=O [E17 Ala mutant],–,–,IC50 (read-out: Ala mutant IWQ IC50 NaV1.5): > 5 µM
CC[C@H](C)[C@H](NC(=O)[C@@H](NC(=O)[C@H](CCCCN)NC(=O)[C@H](CCCNC(=N)N)NC(=O)[C@@H]1CSSC[C@@H]2NC(=O)[C@H](C)NC(=O)[C@H](CCCNC(=N)N)NC(=O)[C@H](C)NC(=O)[C@H](CO)NC(=O)[C@H](CC(=O)O)NC(=O)[C@@H]3CSSC[C@H](NC(=O)[C@H](CCCNC(=N)N)NC(=O)[C@H](CC(C)C)NC(=O)CNC(=O)[C@H](CCC(=O)O)NC(=O)[C@H](CSSC[C@H](NC(=O)[C@@H](N)Cc4ccc(O)cc4)C(=O)N[C@@H](CCC(N)=O)C(=O)N[C@@H](CCCCN)C(=O)N[C@@H](Cc4c[nH]c5ccccc45)C(=O)N[C@@H](CCSC)C(=O)N[C@@H](Cc4c[nH]c5ccccc45)C(=O)N[C@@H]([C@@H](C)O)C(=O)N3)NC2=O)C(=O)N[C@@H](CCCCN)C(=O)N[C@@H](CC(C)C)C(=O)N[C@@H](Cc2c[nH]c3ccccc23)C(=O)N1)[C@@H](C)CC)C(N)=O [K12 Ala mutant],> 5,–,–
CC[C@H](C)[C@H](NC(=O)[C@@H](NC(=O)[C@H](CCCCN)NC(=O)[C@H](CCCNC(=N)N)NC(=O)[C@@H]1CSSC[C@@H]2NC(=O)[C@H](C)NC(=O)[C@H](CCCNC(=N)N)NC(=O)[C@H](CCCCN)NC(=O)[C@H](CO)NC(=O)[C@H](CC(=O)O)NC(=O)[C@@H]3CSSC[C@H](NC(=O)[C@H](CCCNC(=N)N)NC(=O)[C@H](CC(C)C)NC(=O)CNC(=O)[C@H](CCC(=O)O)NC(=O)[C@H](CSSC[C@H](NC(=O)[C@@H](N)Cc4ccc(O)cc4)C(=O)N[C@@H](CCC(N)=O)C(=O)N[C@@H](CCCCN)C(=O)N[C@@H](Cc4c[nH]c5ccccc45)C(=O)N[C@@H](CCSC)C(=O)N[C@@H](Cc4c[nH]c5ccccc45)C(=O)N[C@@H]([C@@H](C)O)C(=O)N3)NC2=O)C(=O)N[C@@H](CCCCN)C(=O)N[C@@H](CCC(=O)O)C(=O)N[C@@H](Cc2c[nH]c3ccccc23)C(=O)N1)[C@@H](C)CC)C(N)=O [L23 Glu mutant],–,> 5,–
CC[C@H](C)[C@H](NC(=O)[C@H](C)NC(=O)[C@H](CCCCN)NC(=O)[C@H](CCCNC(=N)N)NC(=O)[C@@H]1CSSC[C@@H]2NC(=O)[C@H](C)NC(=O)[C@H](CCCNC(=N)N)NC(=O)[C@H](CCCCN)NC(=O)[C@H](CO)NC(=O)[C@H](CC(=O)O)NC(=O)[C@@H]3CSSC[C@H](NC(=O)[C@H](CCCNC(=N)N)NC(=O)[C@H](CC(C)C)NC(=O)CNC(=O)[C@H](CCC(=O)O)NC(=O)[C@H](CSSC[C@H](NC(=O)[C@@H](N)Cc4ccc(O)cc4)C(=O)N[C@@H](CCC(N)=O)C(=O)N[C@@H](CCCCN)C(=O)N[C@@H](Cc4c[nH]c5ccccc45)C(=O)N[C@@H](CCSC)C(=O)N[C@@H](Cc4c[nH]c5ccccc45)C(=O)N[C@@H]([C@@H](C)O)C(=O)N3)NC2=O)C(=O)N[C@@H](CCCCN)C(=O)N[C@@H](CC(C)C)C(=O)N[C@@H](Cc2c[nH]c3ccccc23)C(=O)N1)C(N)=O [I28 Ala mutant],> 5,–,–
